≈ marks a conversion by molar mass, not a printed value.
Assays:
[1] = test system: P.aeruginosa E-2; assay: Treating effect on infections in mouse; type: in vivo; conditions: Pseudomonas aeruginosa, E2, P.aeruginosa E-2 infection
[2] = test system: S.pneumoniae Type I; assay: Treating effect on infections in mouse; type: in vivo; conditions: Streptococcus pneumoniae, S.pneumoniae Type I infection
[3] = in vivo; conditions: mouse
[4] = test system: P.aeruginosa SR24; assay: Treating effect on infections in mouse; type: in vivo; conditions: Pseudomonas aeruginosa, P.aeruginosa SR24 infection
[5] = test system: S. mitis ATCC9811; assay: MIC by agar dilution method; type: cell-based; conditions: Streptococcus mitis, inoculation amount 10^6 CFU/ml
Description: (§1) The minimal inhibitory concentration (MIC) was determined by an agar dilution method. That is, 1.0 ml each of an aqueous solution of a test compound diluted in series was poured into a petri dish. Trypticase soy agar (9 ml) was poured into the solution, and mixed. A suspension (about 10^6 CFU/ml) of test bacteria was smeared on the mixed agar plate.
(§2) Gram-positive bacteria; S. pyogenes C-203, S. agalactiae ATCC13813, S. pneumoniae Type I, S. pneumoniae SR16675(PC-R), S. mitis ATCC9811 Gram-negative bacteria: K. pneumoniae SR1, P. mirabilis PR-4 and P. vulgaris CN-329

[6] = test system: P. vulgaris CN-329; assay: MIC by agar dilution method; type: cell-based; conditions: Proteus vulgaris, CN329, inoculation amount 10^6 CFU/ml
Description: as §1, §2

[7] = test system: S. pyogenes C-203; assay: MIC by agar dilution method; type: cell-based; conditions: Streptococcus pyogenes, C203, inoculation amount 10^6 CFU/ml
Description: as §1, §2

[8] = test system: K. pneumoniae SR1; assay: MIC by agar dilution method; type: cell-based; conditions: Klebsiella pneumoniae, K.pneumoniae R1, inoculation amount 10^6 CFU/ml
Description: as §1, §2

[9] = test system: S. agalactiae ATCC13813; assay: MIC by agar dilution method; type: cell-based; conditions: Streptococcus agalactiae, inoculation amount 10^6 CFU/ml
Description: as §1, §2

[10] = test system: P. mirabilis PR-4; assay: MIC by agar dilution method; type: cell-based; conditions: Proteus mirabilis, PR4, inoculation amount 10^6 CFU/ml
Description: as §1, §2

[11] = test system: S. pneumoniae SR16675(PC-R); assay: MIC by agar dilution method; type: cell-based; conditions: Streptococcus pneumoniae, inoculation amount 10^6 CFU/ml
Description: as §1, §2

[12] = test system: S. pneumoniae Type I; assay: MIC by agar dilution method; type: cell-based; conditions: Streptococcus pneumoniae, inoculation amount 10^6 CFU/ml
Description: as §1, §2

[13] = in vivo; conditions: monkey
[14] = test system: S.aureus Smith; assay: Treating effect on infections in mouse; type: in vivo; conditions: Staphylococcus aureus, S.aureus Smith infection
[15] = test system: P.vulgaris GN-329; assay: Treating effect on infections in mouse; type: in vivo; conditions: Proteus vulgaris, GN329, P.vulgaris GN-329 infection

| half-life [3] | MIC [5] | MIC [6] | MIC [7] | MIC [8] | MIC [9] | MIC [10] | MIC [11] | MIC [12] | half-life [13] | SMILES | ED50 [1] | ED50 [2] | ED50 [4] | ED50 [14] | ED50 [15] |
| --- | --- | --- | --- | --- | --- | --- | --- | --- | --- | --- | --- | --- | --- | --- | --- |
| 23.4 min | 0.1 µg/mL (≈ 0.194 µM) | 0.1 µg/mL (≈ 0.194 µM) | 0.013 µg/mL (≈ 0.0252 µM) | 0.05 µg/mL (≈ 0.097 µM) | 0.1 µg/mL (≈ 0.194 µM) | 0.1 µg/mL (≈ 0.194 µM) | 0.78 µg/mL (≈ 1.51 µM) | 0.05 µg/mL (≈ 0.097 µM) | 76.8 min | CO/N=C(\C(=O)NC1C(=O)N2C(C(=O)[O-])=C(Cn3cc[n+]4ncccc34)CSC12)c1nsc(N)n1 (centres unmarked) [Control compound (1)] | 4.73 mg/kg | 0.69 mg/kg | 1.52 mg/kg | 0.76 mg/kg | 0.81 mg/kg |
|  | 0.05 µg/mL (≈ 0.0763 µM) | 0.013 µg/mL (≈ 0.0198 µM) | 0.006 µg/mL (≈ 0.00915 µM) | 0.006 µg/mL (≈ 0.00915 µM) | 0.025 µg/mL (≈ 0.0381 µM) | 0.013 µg/mL (≈ 0.0198 µM) | 0.2 µg/mL (≈ 0.305 µM) | 0.013 µg/mL (≈ 0.0198 µM) |  | N#CNC(=O)NCc1cc(-c2cc[n+](CC3=C(C(=O)[O-])N4C(=O)C(NC(=O)/C(=N\OCF)c5nsc(N)n5)C4SC3)cc2)c[nH]1 (centres unmarked) [I-1′] |  |  |  |  |  |

— patent US6458950B1, “Compounds and pharmaceutical compositions containing the same” (Shionogi & Co., Ltd., priority 1997, dated 2002)
